Laboratory results as given in US20250312370A1, “SYSTEMS AND METHODS FOR USE OF ADENOSINE TRIPHOSPHATE (ATP) TO RELIEVE SYMPTOMS OF COVID-19 AND RELATED INFECTIONS” (ADENYLATE THERAPEUTICS LLC, priority 2020, published 2025).

Assays:
[1] = system: advanced hormone refractory prostate cancer; conditions: oral ATP added to palliative agents such as samarium-153; cited from earlier work
COVID-19 [2] = test: non-randomized trial of oral ATP supplementation for treatment of COVID-19 at two residential care facilities (facilities 1 and 2); format: in vivo, human
Excerpt: FIG. 3 provides a summary of short-term results of a non-randomized trial of ATP supplementation for treatment of COVID-19 at two different residential care facilities. When the facilities experienced a rapid and insidious onset of COVID-19 in 2020, optional oral ATP nutritional supplementation to COVID-19-positive patients in these two facilities was offered. Patients were given free choice to either accept or reject ATP supplementation. ATP doses ranged from 400-mg capsules four times per day (1600 mg) in the younger patients at facility 1 to three 400-mg capsules three times per day (3600 mg) for the older patients in facility 2. In both facilities, ATP was taken for at least a week after confirmation of SARS-CoV-2 infection. ATP also was offered in powder form to be mixed with food or drink at 450 mg per dose.
From the initial 13 patients diagnosed with COVID-19 in facility 1, six patients with average age 75.0 years chose to start ATP while the remaining seven with average age 74.7 years chose not to take ATP. Because of the visible developing benefit conferred by ATP, all subsequent COVID-19 patients at the facility 1 chose to begin taking ATP at the time of their diagnoses. All six patients who initially chose ATP were still alive.
At facility 2, all of the patients receiving ATP started taking ATP on the same day following confirmation of viral infection. All of the facility 2 patients taking ATP were alive. Because all patients taking ATP were elderly with multiple co-morbidities (including diabetes and heart disease), it would be expected that their death rate should be worse than that of the general population of individuals over 70 years of age.

COVID-19 [3] = test: oral ATP supplementation of COVID-19 patients in facility 3; format: in vivo, human; conditions: protocol similar to facilities 1 and 2
Excerpt: Using a protocol similar to those used in facilities 1 and 2, ATP supplementation was begun in facility 3.

[4] = high dose oral ATP, cited from earlier work
[5] = prolonged infusion; chronically debilitated patients with metastatic treatment refractory disease (Stage IV cancer); cited from earlier work
[6] = in vivo; cited from earlier work

For `Nc1ncnc2c1ncn2[C@@H]1O[C@H](COP(=O)(O)OP(=O)(O)OP(=O)(O)O)[C@@H](O)[C@H]1O` [ATP, Adenosine Triphosphate], the “prostate biomarker PSA” value [1] is given as “dramatically reduces”, the “survival of COVID-19-positive patients accepting oral ATP” value (COVID-19 [2]; facilities 1 and 2, oral ATP 1600-3600 mg per day for at least a week, 2 months after the initiation of supplemental ATP) is given as “alive and recovering” and the “survival of patients who initially chose ATP” value (COVID-19 [2]; facility 1, six patients, average age 75.0 years, 400-mg capsules four times per day) is given as “still alive”. For the same compound, the “survival of patients taking ATP” value (COVID-19 [2]; facility 2, older patients, three 400-mg capsules three times per day) was “alive”, the “survival of COVID-19 patients taking supplemental ATP” value (COVID-19 [3]) was “survived except for one patient” and the cancer patient survival ([4]; advanced cancer patients) was “improved”. The athletic performance ([4]; athletes) was “improved”, the safety of administration [5] was “safely administered” and the pulmonary artery hypertension [6] was “reverse”.
